According to BigSolDB 2.1:

Q: Which solubility (mole fraction) (in acetonitrile, 283.15 K) does the source give for `OC(Cc1ccccc1Cl)(Cn1[nH]cnc1=S)C1(Cl)CC1` (centres undefined) here?
A: The solubility (mole fraction) was 0.00629.

Q: And the solubility (mole fraction) (in acetonitrile, 288.15 K)?
A: Its solubility (mole fraction) is 0.008.

Q: And the solubility (mole fraction) (in acetonitrile, 293.15 K)?
A: Its solubility (mole fraction) is 0.0103.

Q: What about the solubility (mole fraction) (in acetonitrile, 298.15 K) of the same molecule?
A: Its solubility (mole fraction) is 0.0126.

Q: And the solubility (mole fraction) (in acetonitrile, 303.15 K)?
A: Its solubility (mole fraction) is 0.0171.

Q: What about the solubility (mole fraction) (in acetonitrile, 308.15 K) of the same molecule?
A: Its solubility (mole fraction) is 0.0214.

Q: And the solubility (mole fraction) (in acetonitrile, 313.15 K)?
A: Its solubility (mole fraction) is 0.0254.

Q: What about the solubility (mole fraction) (in isopropanol, 283.15 K) of the same molecule?
A: The solubility (mole fraction) was 0.0115.

Q: What about the solubility (mole fraction) (in isopropanol, 288.15 K) of the same molecule?
A: The solubility (mole fraction) was 0.0142.

Q: And the solubility (mole fraction) (in isopropanol, 293.15 K)?
A: The solubility (mole fraction) was 0.0176.

Q: What about the solubility (mole fraction) (in isopropanol, 298.15 K) of the same molecule?
A: The solubility (mole fraction) was 0.0215.

Q: And the solubility (mole fraction) (in isopropanol, 303.15 K)?
A: Its solubility (mole fraction) is 0.0268.

Q: And the solubility (mole fraction) (in isopropanol, 308.15 K)?
A: Its solubility (mole fraction) is 0.0331.

Q: What about the solubility (mole fraction) (in isopropanol, 313.15 K) of the same molecule?
A: The solubility (mole fraction) was 0.0385.

Q: And the solubility (mole fraction) (in methanol, 283.15 K)?
A: The solubility (mole fraction) was 0.01.

Q: What about the solubility (mole fraction) (in methanol, 288.15 K) of the same molecule?
A: Its solubility (mole fraction) is 0.0127.

Q: And the solubility (mole fraction) (in methanol, 293.15 K)?
A: The solubility (mole fraction) was 0.0154.

Q: What about the solubility (mole fraction) (in methanol, 298.15 K) of the same molecule?
A: The solubility (mole fraction) was 0.019.

Q: And the solubility (mole fraction) (in methanol, 303.15 K)?
A: Its solubility (mole fraction) is 0.0232.

Q: And the solubility (mole fraction) (in methanol, 308.15 K)?
A: The solubility (mole fraction) was 0.0307.

Q: What about the solubility (mole fraction) (in methanol, 313.15 K) of the same molecule?
A: The solubility (mole fraction) was 0.0371.

Q: And the solubility (mole fraction) (in n-butanol, 283.15 K)?
A: The solubility (mole fraction) was 0.0147.

Q: And the solubility (mole fraction) (in n-butanol, 288.15 K)?
A: The solubility (mole fraction) was 0.018.

Q: And the solubility (mole fraction) (in n-butanol, 293.15 K)?
A: Its solubility (mole fraction) is 0.0215.

Q: What about the solubility (mole fraction) (in n-butanol, 298.15 K) of the same molecule?
A: Its solubility (mole fraction) is 0.0268.

Q: And the solubility (mole fraction) (in n-butanol, 303.15 K)?
A: Its solubility (mole fraction) is 0.0327.

Q: What about the solubility (mole fraction) (in n-butanol, 308.15 K) of the same molecule?
A: The solubility (mole fraction) was 0.0417.

Q: What about the solubility (mole fraction) (in n-butanol, 313.15 K) of the same molecule?
A: The solubility (mole fraction) was 0.0513.

Q: What about the solubility (mole fraction) (in n-propanol, 283.15 K) of the same molecule?
A: The solubility (mole fraction) was 0.0125.

Q: What about the solubility (mole fraction) (in n-propanol, 288.15 K) of the same molecule?
A: Its solubility (mole fraction) is 0.0161.

Q: What about the solubility (mole fraction) (in n-propanol, 293.15 K) of the same molecule?
A: Its solubility (mole fraction) is 0.0199.

Q: And the solubility (mole fraction) (in n-propanol, 298.15 K)?
A: The solubility (mole fraction) was 0.0248.

Q: And the solubility (mole fraction) (in n-propanol, 303.15 K)?
A: Its solubility (mole fraction) is 0.0305.

Q: And the solubility (mole fraction) (in n-propanol, 308.15 K)?
A: Its solubility (mole fraction) is 0.0373.

Q: What about the solubility (mole fraction) (in n-propanol, 313.15 K) of the same molecule?
A: The solubility (mole fraction) was 0.0465.

Q: And the solubility (mole fraction) (in sec-butanol, 283.15 K)?
A: The solubility (mole fraction) was 0.00735.

Q: And the solubility (mole fraction) (in sec-butanol, 288.15 K)?
A: Its solubility (mole fraction) is 0.00954.

Q: What about the solubility (mole fraction) (in sec-butanol, 293.15 K) of the same molecule?
A: The solubility (mole fraction) was 0.0124.

Q: And the solubility (mole fraction) (in sec-butanol, 298.15 K)?
A: Its solubility (mole fraction) is 0.0152.

Q: What about the solubility (mole fraction) (in sec-butanol, 303.15 K) of the same molecule?
A: Its solubility (mole fraction) is 0.0191.

Q: And the solubility (mole fraction) (in sec-butanol, 308.15 K)?
A: Its solubility (mole fraction) is 0.0259.

Q: And the solubility (mole fraction) (in sec-butanol, 313.15 K)?
A: Its solubility (mole fraction) is 0.0321.

Q: What about the solubility (mole fraction) (in toluene, 283.15 K) of the same molecule?
A: Its solubility (mole fraction) is 0.00196.

Q: And the solubility (mole fraction) (in toluene, 288.15 K)?
A: Its solubility (mole fraction) is 0.00287.

Q: What about the solubility (mole fraction) (in toluene, 293.15 K) of the same molecule?
A: The solubility (mole fraction) was 0.00368.

Q: What about the solubility (mole fraction) (in toluene, 298.15 K) of the same molecule?
A: The solubility (mole fraction) was 0.00481.

Q: What about the solubility (mole fraction) (in toluene, 303.15 K) of the same molecule?
A: Its solubility (mole fraction) is 0.00574.

Q: What about the solubility (mole fraction) (in toluene, 308.15 K) of the same molecule?
A: The solubility (mole fraction) was 0.00782.

Q: What about the solubility (mole fraction) (in toluene, 313.15 K) of the same molecule?
A: Its solubility (mole fraction) is 0.0101.
